This experiment deals with T1, Phosphorylation of Y223 of BTK (Homo sapiens, UniProt Q06187).
T1 construct: host or cells: healthy human whole blood, 3 donors
Description: Whole blood compound screening, phosphorylation of Y223 site of BTK (MSD assay). Type of experiment: cell-based. As to conditions: healthy human whole blood, 2 hours at 37° C., 3 separate donors; read-out: WB BTK-pY223 EC50. In a few lines:
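Heparinized human whole blood from 3 donors treated 2 h at 37 °C with compounds (8 points, top 10 μM, 1:4 dilution, 0.2% DMSO), then lysed. BTK pY223 quantified by MSD sandwich immunoassay (anti-BTK capture, anti-pY223 detection); EC50 from concentration response.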

T1 sequence (Q06187 whole entry): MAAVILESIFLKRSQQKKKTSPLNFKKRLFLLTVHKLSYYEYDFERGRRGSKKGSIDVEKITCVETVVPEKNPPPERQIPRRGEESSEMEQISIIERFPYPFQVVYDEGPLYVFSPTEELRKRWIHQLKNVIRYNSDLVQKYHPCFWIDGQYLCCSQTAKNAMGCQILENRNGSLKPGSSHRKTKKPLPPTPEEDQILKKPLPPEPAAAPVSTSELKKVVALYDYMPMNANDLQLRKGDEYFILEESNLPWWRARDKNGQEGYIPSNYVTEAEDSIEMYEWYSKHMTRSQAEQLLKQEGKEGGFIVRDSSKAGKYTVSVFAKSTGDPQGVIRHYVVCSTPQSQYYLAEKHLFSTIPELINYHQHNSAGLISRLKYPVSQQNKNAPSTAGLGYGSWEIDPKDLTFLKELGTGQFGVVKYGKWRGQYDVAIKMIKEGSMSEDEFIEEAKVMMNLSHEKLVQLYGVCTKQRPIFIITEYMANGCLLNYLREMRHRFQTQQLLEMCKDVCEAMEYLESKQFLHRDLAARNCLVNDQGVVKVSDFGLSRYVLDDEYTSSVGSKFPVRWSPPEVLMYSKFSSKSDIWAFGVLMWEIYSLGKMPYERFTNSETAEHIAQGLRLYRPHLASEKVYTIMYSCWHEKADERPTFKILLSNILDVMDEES

`C=CC(=O)N1CCN([C@@H]2CCNc3c2nn(-c2ccc(Oc4ccccc4)cc2)c3C(N)=O)CC1` [Example 6, (7R)-2-(4-phenoxyphenyl)-7-[4-(prop-2-enoyl)piperazin-1-yl]-4,5,6,7-tetrahydro-2H-pyrazolo[4,3-b]pyridine-3-carboxamide]: the EC50 (usually the concentration that produces a half-maximal response) came out at 24.1 nM.
